Columns and labels:
Test in all cases: relative viability (nuclei count vs DMSO), 5 days (fraction); higher = more cells survive
[1] = compound: NS(=O)(=O)OC[C@@H]1C[C@@H](n2ccc3c(N[C@H]4CCc5ccccc54)ncnc32)C[C@@H]1O [MLN4924] + COc1cccc2cc(-c3nc([C@H]4CC[C@H](C(=O)O)CC4)n4ncnc(N)c34)[nH]c12 [OSI-027] (partner 0.5 µM)
Procedure, shortened: (§1)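 After 5 days of treatment, lung cancer cells in 1536-well plates were fixed and stained in a single step (final 0.05% Triton X-100, 1% formaldehyde, 1 ug/ml Hoechst) and their nuclei counted on 4× images. Treatment had been applied by pin tool the day after seeding as one drug alone or as a fixed anchor-drug dose with five library-drug doses (not always all listed) in √10 steps. Relative viability is the nuclei count of treated wells divided by that of vehicle wells, and values are medians of duplicate plates.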

[2] = compound: C1CC(C1)(C(=O)O)C(=O)O.[NH2-].[NH2-].[Pt+2] [Carboplatin] + Nc1nc2[nH]cc(CCc3ccc(C(=O)N[C@@H](CCC(=O)O)C(=O)O)cc3)c2c(=O)[nH]1 [Pemetrexed] (partner 0.2 µM)
Procedure, shortened: as §1

[3] = compound: C1CC(C1)(C(=O)O)C(=O)O.[NH2-].[NH2-].[Pt+2] [Carboplatin] + CCNC(=O)c1noc(-c2cc(C(C)C)c(O)cc2O)c1-c1ccc(CN2CCOCC2)cc1 [Luminespib] (partner 0.01 µM)
Procedure, shortened: as §1

[4] = compound: CC[C@H](C)N1C=C(C2=C(C=C(C=C21)C3=CN=C(C=C3)N4CCNCC4)C(=O)NCC5=C(C=C(NC5=O)C)C)C [GSK126] + COc1cc2c(Oc3ccc(NC(=O)C4(C(=O)Nc5ccc(F)cc5)CC4)cc3F)ccnc2cc1OCCCN1CCOCC1 [Foretinib] (partner 0.25 µM)
Procedure, shortened: as §1

Cell Line | relative viability ([1]; first compound 0.04 µM) | relative viability ([1]; first compound 0.1265 µM) | relative viability ([1]; first compound 0.4 µM) | relative viability ([1]; first compound 1.265 µM) | relative viability ([1]; first compound 4 µM) | relative viability ([2]; first compound 0.08 µM) | relative viability ([2]; first compound 0.253 µM) | relative viability ([2]; first compound 0.8 µM) | relative viability ([2]; first compound 2.53 µM) | relative viability ([2]; first compound 8 µM) | relative viability ([3]; first compound 0.08 µM) | relative viability ([3]; first compound 0.253 µM) | relative viability ([3]; first compound 0.8 µM) | relative viability ([3]; first compound 2.53 µM) | relative viability ([3]; first compound 8 µM) | relative viability ([4]; first compound 0.08 µM) | relative viability ([4]; first compound 0.253 µM) | relative viability ([4]; first compound 0.8 µM) | relative viability ([4]; first compound 2.53 µM) | relative viability ([4]; first compound 8 µM)
NCI-H1792 | 0.663 | 0.765 | 0.839 | 0.593 | 0.54 | 1.21 | 0.75 | 0.755 | 0.811 | 0.608 | 0.492 | 0.36 | 0.44 | 0.415 | 0.267 | – | – | – | – | –
NCI-H2009 | 0.249 | 0.149 | 0.187 | 0.0664 | 0.0797 | 1.04 | 0.983 | 1 | 0.958 | 0.654 | 1.06 | 1.05 | 0.986 | 0.935 | 0.581 | 1.25 | 1.25 | 1.15 | 1.18 | 1.35
NCI-H2405 | 0.749 | 0.684 | 0.493 | 0.309 | 0.271 | 1.16 | 1.03 | 1.05 | 0.977 | 0.737 | 0.813 | 0.838 | 0.591 | 0.606 | 0.724 | 1.03 | 1 | 1.02 | 1.06 | 1.02
NCI-H1648 | 0.246 | 0.235 | 0.21 | 0.205 | 0.228 | 0.747 | 0.737 | 0.733 | 0.587 | 0.65 | – | – | – | – | – | – | – | – | – | –
HCC-366 | 1.02 | 0.895 | 1.08 | 0.396 | 0.0921 | 0.156 | 0.153 | 0.164 | 0.18 | 0.145 | – | – | – | – | – | 1.02 | 0.974 | 0.907 | 0.892 | 0.935
IA-LM | – | – | – | – | – | – | – | – | – | – | – | – | – | – | – | 1.26 | 1.03 | 0.994 | 1.03 | 1.08
NCI-H727 | 0.521 | 0.47 | 0.559 | 0.389 | 0.441 | – | – | – | – | – | 0.377 | 0.3 | 0.432 | 0.24 | 0.312 | 1.09 | 0.981 | 0.888 | 1.01 | 0.744
Calu-6 | – | – | – | – | – | – | – | – | – | – | – | – | – | – | – | 1.02 | 0.934 | 0.896 | 0.829 | 0.978
NCI-H1703 | – | – | – | – | – | – | – | – | – | – | – | – | – | – | – | 0.354 | 0.357 | 0.311 | 0.373 | 0.381
EBC-1 | – | – | – | – | – | – | – | – | – | – | – | – | – | – | – | 0.117 | 0.113 | 0.0893 | 0.102 | 0.0935
HCC-78 | 0.416 | 0.349 | 0.399 | 0.27 | 0.236 | 0.898 | 0.905 | 0.893 | 0.883 | 0.854 | – | – | – | – | – | 0.561 | 0.556 | 0.521 | 0.63 | 0.548
NCI-H522 | 0.666 | 0.64 | 0.398 | 0.317 | 0.465 | 0.814 | 0.924 | 1.11 | 1.01 | 0.913 | 1.05 | 1.38 | 0.851 | 0.904 | 0.835 | – | – | – | – | –
A549 | – | – | – | – | – | – | – | – | – | – | – | – | – | – | – | 1.01 | 0.974 | 0.922 | 0.954 | 0.904

— the supplement of paper PMC10307832
